IC50 data for 31 compounds are collected here from patent US11661426B2, “Imidazole-containing inhibitors of ALK2 kinase” (BioCryst Pharmaceuticals, Inc., priority 2017, dated 2023).

This experiment has as its target ALK2 (Homo sapiens (Human), UniProt Q04771). The experiment is described as follows: ALK2 inhibition, LanthaScreen Eu Kinase Binding Assay (ThermoFisher Scientific / Life Technologies). Particulars: read-out: Measured Ki (IC50) Value for Compounds: IC50. The method, then:
Biochemical assays to measure the inhibitory effects of the compounds were performed by ThermoFisher Scientific (Life Technologies). ALK2 inhibition was tested using LanthaScreen™ Eu Kinase Binding Assay screening protocol.

Sequence of ALK2 (Q04771 21-509): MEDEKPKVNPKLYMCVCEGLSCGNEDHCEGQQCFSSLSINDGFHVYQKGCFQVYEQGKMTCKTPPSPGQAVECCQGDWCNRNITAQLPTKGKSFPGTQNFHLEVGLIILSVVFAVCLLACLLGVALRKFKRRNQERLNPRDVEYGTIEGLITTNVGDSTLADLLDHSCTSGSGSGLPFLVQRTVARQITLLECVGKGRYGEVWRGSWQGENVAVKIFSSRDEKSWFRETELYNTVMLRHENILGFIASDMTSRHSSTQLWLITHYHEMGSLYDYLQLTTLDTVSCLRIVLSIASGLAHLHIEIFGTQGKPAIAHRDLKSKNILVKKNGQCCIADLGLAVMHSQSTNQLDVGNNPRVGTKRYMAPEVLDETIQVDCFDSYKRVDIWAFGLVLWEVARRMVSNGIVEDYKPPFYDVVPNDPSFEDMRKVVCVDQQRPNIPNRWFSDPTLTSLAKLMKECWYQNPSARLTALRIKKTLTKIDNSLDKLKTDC

Turning to `COc1cc(-n2cnc(Nc3nc(N4CCC[C@H]4CO)nn4c(CNCC5CC5)ccc34)c2)cc(OC)c1OC` [Compound 120a, (S)-(1-(7-(((cyclopropylmethyl)amino)methyl)-4-((1-(3,4,5-trimethoxyphenyl)-1H-imidazol-4-yl)amino)pyrrolo[2,1-f][1,2,4]triazin-2-yl)pyrrolidin-2-yl)methanol], the IC50 is below 100 nM.
For `COc1cc(-n2cnc(Nc3nc(N4CCCC4)nc4c3CCNC4)c2)cc(OC)c1OC` [Compound 184b, 2-(pyrrolidin-1-yl)-N-(1-(3,4,5-trimethoxyphenyl)-1H-imidazol-4-yl)-5,6,7,8-tetrahydropyrido[3,4-d]pyrimidin-4-amine], the IC50 was below 100 nM.
In the case of `COc1cc(-c2ccc(Nc3nc(N4CCC[C@H]4CO)nc4ccccc34)nc2)cc(OC)c1OC` [Compound 370b, (S)-(1-(4-((5-(3,4,5-trimethoxyphenyl)pyridin-2-yl)amino)quinazolin-2-yl)pyrrolidin-2-yl)methanol], the IC50 is above 1000 nM.
For `COc1cc(-n2cnc(Nc3nc(N4CCC[C@H]4C(N)=O)nn4cccc34)c2)cc(C(=O)NC2CCCC2)c1O` [Compound 351d, (S)-1-(4-((1-(3-(cyclopentylcarbamoyl)-4-hydroxy-5-methoxyphenyl)-1H-imidazol-4-yl)amino)pyrrolo[2,1-f][1,2,4]triazin-2-yl)pyrrolidine-2-carboxamide], the IC50 is above 1000 nM.
Regarding `COc1cc(-n2cnc(Nc3cc4ccccc4cn3)c2)cc(OC)c1OC` [Compound 195b, N-(1-(3,4,5-trimethoxyphenyl)-1H-imidazol-4-yl)isoquinolin-3-amine], the IC50 was below 100 nM.
The same measure for `COc1cc(-n2cnc(Nc3nc(N4CCC[C@H]4C(=O)NCC4CC4)nc4ccoc34)c2)cc(OC)c1OC` [Compound 248a, (S)—N-(cyclopropylmethyl)-1-(4-((1-(3,4,5-trimethoxyphenyl)-1H-imidazol-4-yl)amino)furo[3,2-d]pyrimidin-2-yl)pyrrolidine-2-carboxamide]: below 100 nM; for `COc1cc(-n2cnc(Nc3ccc4ccccc4c3)c2)cc(OC)c1OC` [Compound 178b, N-(naphthalen-2-yl)-1-(3,4,5-trimethoxyphenyl)-1H-imidazol-4-amine]: 100 to 1000 nM.
As to `COc1ccc(-n2cnc(Nc3nc(N4CCC[C@H]4CO)c4cccn4n3)c2)cc1OC` [Compound 243a, (S)-(1-(2-((1-(3,4-dimethoxyphenyl)-1H-imidazol-4-yl)amino)pyrrolo[2,1-f][1,2,4]triazin-4-yl)pyrrolidin-2-yl)methanol], the 50% inhibitory concentration (IC50) fell in the range of 100 to 1000 nM.
Consider `COc1cc(-n2cnc(Nc3nc(N4CCC[C@H]4CO)c4ccn(C(C)C)c4n3)c2)cc(OC)c1OC` [Compound 472c, (S)-(1-(7-isopropyl-2-((1-(3,4,5-trimethoxyphenyl)-1H-imidazol-4-yl)amino)-7H-pyrrolo[2,3-d]pyrimidin-4-yl)pyrrolidin-2-yl)methanol], for which the IC50 is below 100 nM.
Regarding `Nc1n[nH]c2ccccc12` [Compound 353a, 1H-indazol-3-amine], the IC50 is above 1000 nM.
As for `COc1cc(-n2cnc(Nc3nc(N4CCC[C@@H]4C(N)=O)nc4sccc34)c2)cc(OC)c1OC` [Compound 298a, (R)-1-(4-((1-(3,4,5-trimethoxyphenyl)-1H-imidazol-4-yl)amino)thieno[2,3-d]pyrimidin-2-yl)pyrrolidine-2-carboxamide], the figure is below 100 nM; as for `COc1cc(-n2cnc(Nc3nc(N4CCC[C@H]4C(N)=O)nc4c3ncn4C)c2)cc(OC)c1OC` [Compound 387a, (S)-1-(9-methyl-6-((1-(3,4,5-trimethoxyphenyl)-1H-imidazol-4-yl)amino)-9H-purin-2-yl)pyrrolidine-2-carboxamide], below 100 nM.
Regarding `CCN(CCO)c1nc(Nc2cn(-c3ccccc3)cn2)c2ccsc2n1` [Compound 62b, 2-(ethyl(4-(1-phenyl-1H-imidazol-4-ylamino)thieno[2,3-d]pyrimidin-2-yl)amino)ethanol], the IC50 was 100 to 1000 nM.
The same measure for `COc1cc(-n2cnc(Nc3nc(N4CCC[C@H]4CO)nc4c3CCCC4)c2)cc(OC)c1OC` [Compound 296a, (S)-(1-(4-((1-(3,4,5-trimethoxyphenyl)-1H-imidazol-4-yl)amino)-5,6,7,8-tetrahydroquinazolin-2-yl)pyrrolidin-2-yl)methanol]: below 100 nM; for `COc1cc(-n2cnc(Nc3nc(N4CCC[C@H]4CO)c4c(ncn4C)n3)c2)cc(OC)c1OC` [Compound 389c, (S)-(1-(7-methyl-2-((1-(3,4,5-trimethoxyphenyl)-1H-imidazol-4-yl)amino)-7H-purin-6-yl)pyrrolidin-2-yl)methanol]: below 100 nM; for `COc1cc(-n2cnc(Nc3nc(N4CCC[C@@H]4C(N)=O)nc4scnc34)c2)cc(OC)c1OC` [Compound 318a, (R)-1-(7-((1-(3,4,5-trimethoxyphenyl)-1H-imidazol-4-yl)amino)thiazolo[5,4-d]pyrimidin-5-yl)pyrrolidine-2-carboxamide]: below 100 nM.
As for `COc1cc(-n2cnc(Nc3nc(N4CCC[C@H]4CO)c4ccsc4n3)c2)cc(OC)c1OC` [Compound 133b, (S)-(1-(2-((1-(3,4,5-trimethoxyphenyl)-1H-imidazol-4-yl)amino)thieno[2,3-d]pyrimidin-4-yl)pyrrolidin-2-yl)methanol], the figure is below 100 nM; as for `OCc1cc2c(Nc3cn(-c4ccccc4)cn3)nc(N3CCC[C@H]3CO)nc2s1` [Compound 70f, (S)-(1-(6-(hydroxymethyl)-4-((1-phenyl-1H-imidazol-4-yl)amino)thieno[2,3-d]pyrimidin-2-yl)pyrrolidin-2-yl)methanol], below 100 nM.
As to `COc1cc(-n2cnc(Nc3nc(N4CC5(CC5)C[C@H]4CO)c4cccn4n3)c2)cc(OC)c1OC` [Compound 380d, (S)-(5-(2-((1-(3,4,5-trimethoxyphenyl)-1H-imidazol-4-yl)amino)pyrrolo[2,1-f][1,2,4]triazin-4-yl)-5-azaspiro[2.4]heptan-6-yl)methanol], the IC50 is below 100 nM.
In the case of `OC[C@@H]1CCCN1c1nc(Nc2cn(-c3ccccc3)cn2)nn2cccc12` [Compound 172a, (S)-(1-(2-((1-phenyl-1H-imidazol-4-yl)amino)pyrrolo[2,1-f][1,2,4]triazin-4-yl)pyrrolidin-2-yl)methanol], the IC50 fell in the range of 100 to 1000 nM.
`COc1cc(-n2cnc(Nc3nc(N4CCC[C@H]4C(N)=O)c4ccccc4n3)c2)cc(OC)c1OC` [Compound 204b, (S)-1-(2-((1-(3,4,5-trimethoxyphenyl)-1H-imidazol-4-yl)amino)quinazolin-4-yl)pyrrolidine-2-carboxamide]: the IC50 was in the range of 100 to 1000 nM.
The same measure for `COc1cc(-n2cnc(Nc3nc(N4CCC[C@H]4C(F)(F)F)c4cccn4n3)c2)cc(OC)c1OC` [Compound 206b, (S)-4-(2-(trifluoromethyl)pyrrolidin-1-yl)-N-(1-(3,4,5-trimethoxyphenyl)-1H-imidazol-4-yl)pyrrolo[2,1-f][1,2,4]triazin-2-amine]: below 100 nM.
The same measure for `COc1cc(-n2cnc(Nc3nc(N4CCC[C@H]4CO)nn4cccc34)c2)cc(OC)c1OC` [Compound 57c, (S)-(1-(4-((1-(3,4,5-trimethoxyphenyl)-1H-imidazol-4-yl)amino)pyrrolo[2,1-f][1,2,4]triazin-2-yl)pyrrolidin-2-yl)methanol]: below 100 nM; for `Cn1cnc(Nc2nc(N3CCCC3c3ccccn3)nn3cccc23)c1` (stereo not shown) [Compound 4c, N-(1-methyl-1H-imidazol-4-yl)-2-(2-(pyridin-2-yl)pyrrolidin-1-yl)pyrrolo[1,2-f][1,2,4]triazin-4-amine]: below 100 nM; for `N#Cc1cccc(-n2cnc(Nc3nc(N4CCC[C@H]4CO)nn4cccc34)c2)c1` [Compound 119c, (S)-3-(4-((2-(2-(hydroxymethyl)pyrrolidin-1-yl)pyrrolo[2,1-f][1,2,4]triazin-4-yl)amino)-1H-imidazol-1-yl)benzonitrile]: below 100 nM.
Take `COc1cc(-n2cnc(Nc3nc(N4CCC[C@H]4CO)c4ccc(-c5cccc(N)c5)cc4n3)c2)cc(OC)c1OC` [Compound 361c, (S)-(1-(7-(3-aminophenyl)-2-((1-(3,4,5-trimethoxyphenyl)-1H-imidazol-4-yl)amino)quinazolin-4-yl)pyrrolidin-2-yl)methanol]: the IC50 is below 100 nM.
For the compound `COc1cc(-n2cnc(Nc3nc(N4C(=O)CC[C@H]4CO)nc4ccoc34)c2)cc(OC)c1OC` [Compound 270a, (S)-5-(hydroxymethyl)-1-(4-((1-(3,4,5-trimethoxyphenyl)-1H-imidazol-4-yl)amino)furo[3,2-d]pyrimidin-2-yl)pyrrolidin-2-one], the IC50 is below 100 nM.
With `COc1cc(-n2cnc(Nc3nc(N4CCC[C@H]4C(N)=O)nc4c3CCCC4)c2)cc(OC)c1OC` [Compound 302a, (S)-1-(4-((1-(3,4,5-trimethoxyphenyl)-1H-imidazol-4-yl)amino)-5,6,7,8-tetrahydroquinazolin-2-yl)pyrrolidine-2-carboxamide], the IC50 was below 100 nM.
As for `COc1cc(-n2cnc(Nc3nc(N4CCC[C@H]4C(N)=O)nc4c3CCN(Cc3ccccc3)C4)c2)cc(OC)c1OC` [Compound 154a, (S)-1-(7-benzyl-4-((1-(3,4,5-trimethoxyphenyl)-1H-imidazol-4-yl)amino)-5,6,7,8-tetrahydropyrido[3,4-d]pyrimidin-2-yl)pyrrolidine-2-carboxamide], the IC50 was below 100 nM.
Turning to `COc1cc(-n2cnc(Nc3nc(N4CCC[C@@H]4CO)nc4cc(C(F)(F)F)ccc34)c2)cc(OC)c1OC` [Compound 293a, (R)-(1-(7-(trifluoromethyl)-4-((1-(3,4,5-trimethoxyphenyl)-1H-imidazol-4-yl)amino)quinazolin-2-yl)pyrrolidin-2-yl)methanol], the half-inhibitory concentration (IC50) was below 100 nM.
On to `OC[C@@H]1CCCN1c1cc(F)cc(-n2cnc(Nc3nc(N4CCC[C@H]4CO)nn4cccc34)c2)c1` [Compound 83c, ((S)-1-(4-((1-(3-fluoro-5-((S)-2-(hydroxymethyl)pyrrolidin-1-yl)phenyl)-1H-imidazol-4-yl)amino)pyrrolo[2,1-f][1,2,4]triazin-2-yl)pyrrolidin-2-yl)methanol], for which the IC50 was below 100 nM.

In general, IC50 refers to the midpoint of a concentration-inhibition curve.
